Data taken from PubChem BioAssay AID2060609 (Molecular Pharmacology Branch, DTP, NCI, 2025).

System: 855422-203-R-J1-PDC complex spheroids, viability
Test: Anticancer human tumor 855422-203-R-J1-PDC patient-derived bladder carcinoma cell line growth inhibition [CLK]
Conditions: for IC50: curve of first compound; for viability, T/C: stronger effect = lower value
Outline: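 Multi-cell-type spheroids combined patient-derived tumor cells with HUVEC endothelial cells and human mesenchymal stem cells. Paired agents were dosed in half-log steps down from about clinical Cmax, or from 10 microM where Cmax was unknown.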
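Note: spheroids exposed to drugs for seven days before readout.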
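Throughout, for viability, T/C: 100% = DMSO vehicle control wells.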

CC(C)CC(NC(=O)C(Cc1ccccc1)NC(=O)c1cnccn1)B(O)O (centres undefined) + CNC(=O)c1ccc(Nc2nc(OC3CCCC3)c3c(-c4ccc5nc(C)oc5c4)c[nH]c3n2)c(OC)c1 was tested, and the IC50 (second compound 0.0316 µM) was less than 0.949 nM, the IC50 (second compound 0.1 µM) was less than 0.949 nM and the IC50 (second compound 0.316 µM) was less than 0.949 nM. For the same molecule, the IC50 (second compound 1 µM) was less than 0.949 nM, the IC50 (second compound 3.16 µM) was less than 0.949 nM and the IC50 (second compound 10 µM) was less than 0.949 nM. For the same molecule, the viability, T/C (second compound 0.0316 µM, first compound 0.000949 µM) was 4.13%, the viability, T/C (second compound 0.0316 µM, first compound 0.003 µM) was 0.22% and the viability, T/C (second compound 0.0316 µM, first compound 0.00949 µM) was 0.2%. For the same molecule, the viability, T/C (second compound 0.0316 µM, first compound 0.03 µM) was 0.21%, the viability, T/C (second compound 0.0316 µM, first compound 0.0949 µM) was 0.17% and the viability, T/C (second compound 0.0316 µM, first compound 0.3 µM) was 0.18%. The viability, T/C (second compound 0.1 µM, first compound 0.000949 µM) was 2.95%, the viability, T/C (second compound 0.1 µM, first compound 0.003 µM) was 0.2% and the viability, T/C (second compound 0.1 µM, first compound 0.00949 µM) was 0.18%. The viability, T/C (second compound 0.1 µM, first compound 0.03 µM) was 0.17%, the viability, T/C (second compound 0.1 µM, first compound 0.0949 µM) was 0.17% and the viability, T/C (second compound 0.1 µM, first compound 0.3 µM) was 0.49%. For the same molecule, the viability, T/C (second compound 0.316 µM, first compound 0.000949 µM) was 2.47%, the viability, T/C (second compound 0.316 µM, first compound 0.003 µM) was 0.17% and the viability, T/C (second compound 0.316 µM, first compound 0.00949 µM) was 0.13%. It also gave a viability, T/C (second compound 0.316 µM, first compound 0.03 µM) of 0.13%, a viability, T/C (second compound 0.316 µM, first compound 0.0949 µM) of 0.12% and a viability, T/C (second compound 0.316 µM, first compound 0.3 µM) of 0.54%. It also gave a viability, T/C (second compound 1 µM, first compound 0.000949 µM) of 1.78%, a viability, T/C (second compound 1 µM, first compound 0.003 µM) of 0.13% and a viability, T/C (second compound 1 µM, first compound 0.00949 µM) of 0.13%. For the same molecule, the viability, T/C (second compound 1 µM, first compound 0.03 µM) was 0.1%, the viability, T/C (second compound 1 µM, first compound 0.0949 µM) was 0.14% and the viability, T/C (second compound 1 µM, first compound 0.3 µM) was 0.1%. The viability, T/C (second compound 3.16 µM, first compound 0.000949 µM) was 1.68%, the viability, T/C (second compound 3.16 µM, first compound 0.003 µM) was 0.13% and the viability, T/C (second compound 3.16 µM, first compound 0.00949 µM) was 0.65%. For the same molecule, the viability, T/C (second compound 3.16 µM, first compound 0.03 µM) was 0.08%, the viability, T/C (second compound 3.16 µM, first compound 0.0949 µM) was 0.1% and the viability, T/C (second compound 3.16 µM, first compound 0.3 µM) was 0.11%. The viability, T/C (second compound 10 µM, first compound 0.000949 µM) was 1.83%, the viability, T/C (second compound 10 µM, first compound 0.003 µM) was 0.15% and the viability, T/C (second compound 10 µM, first compound 0.00949 µM) was 0.13%. It also gave a viability, T/C (second compound 10 µM, first compound 0.03 µM) of 0.12%, a viability, T/C (second compound 10 µM, first compound 0.0949 µM) of 0.28% and a viability, T/C (second compound 10 µM, first compound 0.3 µM) of 0.12%.

Molecule CC1(C)CCC(CN2CCN(c3ccc(C(=O)NS(=O)(=O)c4ccc(NCC5CCOCC5)c([N+](=O)[O-])c4)c(Oc4cnc5[nH]ccc5c4)c3)CC2)=C(c2ccc(Cl)cc2)C1 + CNC(=O)c1ccc(Nc2nc(OC3CCCC3)c3c(-c4ccc5nc(C)oc5c4)c[nH]c3n2)c(OC)c1 has an IC50 (second compound 0.0316 µM) of 6590 nM, an IC50 (second compound 0.1 µM) of 4220 nM and an IC50 (second compound 0.316 µM) of less than 31.6 nM. It also gave an IC50 (second compound 1 µM) of less than 31.6 nM, an IC50 (second compound 3.16 µM) of less than 31.6 nM and an IC50 (second compound 10 µM) of less than 31.6 nM. It also gave a viability, T/C (second compound 0.0316 µM, first compound 0.0316 µM) of 128%, a viability, T/C (second compound 0.0316 µM, first compound 0.1 µM) of 118% and a viability, T/C (second compound 0.0316 µM, first compound 0.316 µM) of 116%. It also gave a viability, T/C (second compound 0.0316 µM, first compound 1 µM) of 125%, a viability, T/C (second compound 0.0316 µM, first compound 3.16 µM) of 173% and a viability, T/C (second compound 0.0316 µM, first compound 10 µM) of 3.47%. The viability, T/C (second compound 0.1 µM, first compound 0.0316 µM) was 54.1%, the viability, T/C (second compound 0.1 µM, first compound 0.1 µM) was 68.9% and the viability, T/C (second compound 0.1 µM, first compound 0.316 µM) was 62.4%. For the same molecule, the viability, T/C (second compound 0.1 µM, first compound 1 µM) was 75.5%, the viability, T/C (second compound 0.1 µM, first compound 3.16 µM) was 69.2% and the viability, T/C (second compound 0.1 µM, first compound 10 µM) was 2.06%. It also gave a viability, T/C (second compound 0.316 µM, first compound 0.0316 µM) of 20.6%, a viability, T/C (second compound 0.316 µM, first compound 0.1 µM) of 23.1% and a viability, T/C (second compound 0.316 µM, first compound 0.316 µM) of 28.9%. The viability, T/C (second compound 0.316 µM, first compound 1 µM) was 20.9%, the viability, T/C (second compound 0.316 µM, first compound 3.16 µM) was 20.5% and the viability, T/C (second compound 0.316 µM, first compound 10 µM) was 3.1%. It also gave a viability, T/C (second compound 1 µM, first compound 0.0316 µM) of 21.3%, a viability, T/C (second compound 1 µM, first compound 0.1 µM) of 18.3% and a viability, T/C (second compound 1 µM, first compound 0.316 µM) of 19.3%. The viability, T/C (second compound 1 µM, first compound 1 µM) was 27.2%, the viability, T/C (second compound 1 µM, first compound 3.16 µM) was 23.3% and the viability, T/C (second compound 1 µM, first compound 10 µM) was 3.87%. For the same molecule, the viability, T/C (second compound 3.16 µM, first compound 0.0316 µM) was 22.6%, the viability, T/C (second compound 3.16 µM, first compound 0.1 µM) was 24.9% and the viability, T/C (second compound 3.16 µM, first compound 0.316 µM) was 19.5%. For the same molecule, the viability, T/C (second compound 3.16 µM, first compound 1 µM) was 22.9%, the viability, T/C (second compound 3.16 µM, first compound 3.16 µM) was 19.1% and the viability, T/C (second compound 3.16 µM, first compound 10 µM) was 6.53%. The viability, T/C (second compound 10 µM, first compound 0.0316 µM) was 17.3%, the viability, T/C (second compound 10 µM, first compound 0.1 µM) was 19.6% and the viability, T/C (second compound 10 µM, first compound 0.316 µM) was 19.3%. The viability, T/C (second compound 10 µM, first compound 1 µM) was 19.4%, the viability, T/C (second compound 10 µM, first compound 3.16 µM) was 19.3% and the viability, T/C (second compound 10 µM, first compound 10 µM) was 4.56%.
